Results taken from ChEMBL document CHEMBL5465560, “Selectivity Literature for EUbOPEN Chemogenomic Library” (2024).

Tests used:
[1] = biological target: Activin receptor type-1-like (Homo sapiens) (UniProt P37023); experiment: Selectivity interaction (KinomeScan (DiscoverX)) EUB0001049a ACVRL1; settings: at 1 µM
[2] = biological target: T1, Peripheral plasma membrane protein CASK (Homo sapiens) (UniProt O14936); experiment: Selectivity interaction (KinomeScan (DiscoverX)) EUB0001049a CASK; settings: at 1 µM
T1 sequence (whole entry): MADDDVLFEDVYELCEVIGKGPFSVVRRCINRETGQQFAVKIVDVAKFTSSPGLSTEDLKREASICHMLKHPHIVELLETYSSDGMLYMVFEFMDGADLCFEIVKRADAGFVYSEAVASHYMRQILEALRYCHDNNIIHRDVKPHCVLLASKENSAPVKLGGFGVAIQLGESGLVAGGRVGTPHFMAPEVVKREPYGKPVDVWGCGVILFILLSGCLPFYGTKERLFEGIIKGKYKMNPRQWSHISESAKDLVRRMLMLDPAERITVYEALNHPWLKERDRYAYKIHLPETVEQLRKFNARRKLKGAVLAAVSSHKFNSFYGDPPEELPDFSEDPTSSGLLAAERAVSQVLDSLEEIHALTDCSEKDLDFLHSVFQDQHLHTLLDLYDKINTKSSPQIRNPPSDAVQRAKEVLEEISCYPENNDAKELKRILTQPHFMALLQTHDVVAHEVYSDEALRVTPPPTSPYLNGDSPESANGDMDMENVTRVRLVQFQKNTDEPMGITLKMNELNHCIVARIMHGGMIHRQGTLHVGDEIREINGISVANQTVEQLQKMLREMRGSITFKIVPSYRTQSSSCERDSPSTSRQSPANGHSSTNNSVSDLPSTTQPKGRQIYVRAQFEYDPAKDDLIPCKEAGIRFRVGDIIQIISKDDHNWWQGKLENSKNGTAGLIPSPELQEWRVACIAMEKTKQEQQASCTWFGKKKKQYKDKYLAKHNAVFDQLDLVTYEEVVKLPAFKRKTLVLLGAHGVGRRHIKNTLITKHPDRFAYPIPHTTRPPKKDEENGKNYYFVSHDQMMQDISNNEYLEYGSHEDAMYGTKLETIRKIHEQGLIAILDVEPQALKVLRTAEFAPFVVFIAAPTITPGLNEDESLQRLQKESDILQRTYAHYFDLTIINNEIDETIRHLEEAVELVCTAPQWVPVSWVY

[3] = biological target: Serine/threonine-protein kinase PAK 2 (Homo sapiens) (UniProt Q13177); experiment: Selectivity interaction (KinomeScan (DiscoverX)) EUB0000666a PAK2; settings: at 10 µM
[4] = biological target: T2, Alpha-1A adrenergic receptor (Homo sapiens) (UniProt P35348); experiment: Selectivity interaction (GPCR panel (PDSP screen)) EUB0001079a ADRA1A; settings: at 10 µM
T2 sequence (whole entry): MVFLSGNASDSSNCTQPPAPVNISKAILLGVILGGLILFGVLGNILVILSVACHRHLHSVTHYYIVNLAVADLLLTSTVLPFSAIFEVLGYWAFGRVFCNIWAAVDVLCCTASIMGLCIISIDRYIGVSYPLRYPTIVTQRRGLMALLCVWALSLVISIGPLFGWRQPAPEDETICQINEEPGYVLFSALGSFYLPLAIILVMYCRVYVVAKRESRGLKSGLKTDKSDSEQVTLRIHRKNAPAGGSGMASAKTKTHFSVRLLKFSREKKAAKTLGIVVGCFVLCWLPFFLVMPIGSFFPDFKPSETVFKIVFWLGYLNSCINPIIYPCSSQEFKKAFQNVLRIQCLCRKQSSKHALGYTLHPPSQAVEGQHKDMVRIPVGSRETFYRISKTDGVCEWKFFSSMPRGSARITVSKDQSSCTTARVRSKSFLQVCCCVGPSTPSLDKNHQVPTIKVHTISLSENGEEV

[5] = biological target: Serine/threonine-protein kinase 24 (Homo sapiens) (UniProt Q9Y6E0); experiment: Selectivity interaction (Kinase panel (DSF assay)) EUB0001559a STK24
CREB-binding protein = CREB-binding protein (Homo sapiens, UniProt Q92793); experiment: Selectivity interaction (Bromodomain panel (DSF asssay)) EUB0000270b CREBBP
Misshapen-like kinase 1 = Misshapen-like kinase 1 (Homo sapiens, UniProt Q8N4C8); experiment: Selectivity interaction (KinomeScan (DiscoverX)) EUB0000092b MINK1; settings: at 10 µM
[6] = biological target: T3, Membrane-associated tyrosine- and threonine-specific cdc2-inhibitory kinase (Homo sapiens) (UniProt Q99640); experiment: Selectivity interaction (KinomeScan (DiscoverX)) EUB0000092b PKMYT1; settings: at 10 µM
T3 sequence (whole entry): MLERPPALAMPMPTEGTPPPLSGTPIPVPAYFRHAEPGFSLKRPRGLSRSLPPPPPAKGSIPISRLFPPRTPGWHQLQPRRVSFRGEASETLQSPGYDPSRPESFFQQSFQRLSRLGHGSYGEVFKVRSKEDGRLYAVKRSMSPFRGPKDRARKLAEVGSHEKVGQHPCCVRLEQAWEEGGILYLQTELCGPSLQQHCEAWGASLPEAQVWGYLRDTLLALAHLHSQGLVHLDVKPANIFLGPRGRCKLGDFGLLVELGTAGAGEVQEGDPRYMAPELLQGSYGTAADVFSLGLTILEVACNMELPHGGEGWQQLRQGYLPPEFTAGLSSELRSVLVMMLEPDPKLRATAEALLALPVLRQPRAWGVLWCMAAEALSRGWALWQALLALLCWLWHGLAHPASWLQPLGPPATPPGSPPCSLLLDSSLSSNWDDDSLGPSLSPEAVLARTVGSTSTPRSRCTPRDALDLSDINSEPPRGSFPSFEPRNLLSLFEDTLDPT

[7] = biological target: cAMP-dependent protein kinase catalytic subunit alpha (Homo sapiens, UniProt P17612); experiment: Selectivity interaction (KinomeScan (DiscoverX)) EUB0000092b PRKACA; settings: at 10 µM
[8] = biological target: RAF proto-oncogene serine/threonine-protein kinase (Homo sapiens) (UniProt P04049); experiment: Selectivity interaction (KinomeScan (DiscoverX)) EUB0000092b RAF1; settings: at 10 µM
[9] = biological target: Vascular endothelial growth factor receptor 3 (Homo sapiens, UniProt P35916); settings: at 10 µM
[10] = tested on: Mast/stem cell growth factor receptor Kit (Homo sapiens), P10721 [D816V]; settings: at 10 µM
[11] = biological target: Ribosomal protein S6 kinase alpha-2 (Homo sapiens) (UniProt Q15349); experiment: Selectivity interaction (ActivX KiNativ screen (ex vivo kinase selectivity in human PBMCs)) EUB0001619a RPS6KA2; assay type: cell-based; settings: PBMC, at 1 µM
[12] = biological target: Protein kinase C gamma type (Homo sapiens) (UniProt P05129); experiment: Selectivity interaction (SelectScreen profiling (Invitrogen)) EUB0000607a PRKCG; settings: at 2 µM

Sequence of RAF proto-oncogene serine/threonine-protein kinase (Homo sapiens) (P04049 whole entry): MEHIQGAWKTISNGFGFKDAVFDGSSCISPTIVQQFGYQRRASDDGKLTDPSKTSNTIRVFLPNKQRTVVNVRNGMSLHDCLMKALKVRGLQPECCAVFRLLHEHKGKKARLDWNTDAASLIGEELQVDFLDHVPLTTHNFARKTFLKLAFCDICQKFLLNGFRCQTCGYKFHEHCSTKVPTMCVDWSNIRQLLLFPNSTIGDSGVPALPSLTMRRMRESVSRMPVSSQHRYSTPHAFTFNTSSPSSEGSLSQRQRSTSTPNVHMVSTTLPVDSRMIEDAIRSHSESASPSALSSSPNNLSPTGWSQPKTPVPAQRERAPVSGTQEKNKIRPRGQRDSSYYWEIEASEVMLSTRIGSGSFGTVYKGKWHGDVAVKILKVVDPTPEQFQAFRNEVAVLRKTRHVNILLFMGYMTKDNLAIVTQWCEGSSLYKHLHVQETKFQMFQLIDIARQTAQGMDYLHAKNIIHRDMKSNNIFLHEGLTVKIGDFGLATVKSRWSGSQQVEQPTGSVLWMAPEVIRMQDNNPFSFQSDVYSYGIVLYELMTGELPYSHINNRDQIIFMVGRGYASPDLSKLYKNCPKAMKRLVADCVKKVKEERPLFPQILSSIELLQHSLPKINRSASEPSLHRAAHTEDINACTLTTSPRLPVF
Sequence of Misshapen-like kinase 1 (Q8N4C8 whole entry, looked up): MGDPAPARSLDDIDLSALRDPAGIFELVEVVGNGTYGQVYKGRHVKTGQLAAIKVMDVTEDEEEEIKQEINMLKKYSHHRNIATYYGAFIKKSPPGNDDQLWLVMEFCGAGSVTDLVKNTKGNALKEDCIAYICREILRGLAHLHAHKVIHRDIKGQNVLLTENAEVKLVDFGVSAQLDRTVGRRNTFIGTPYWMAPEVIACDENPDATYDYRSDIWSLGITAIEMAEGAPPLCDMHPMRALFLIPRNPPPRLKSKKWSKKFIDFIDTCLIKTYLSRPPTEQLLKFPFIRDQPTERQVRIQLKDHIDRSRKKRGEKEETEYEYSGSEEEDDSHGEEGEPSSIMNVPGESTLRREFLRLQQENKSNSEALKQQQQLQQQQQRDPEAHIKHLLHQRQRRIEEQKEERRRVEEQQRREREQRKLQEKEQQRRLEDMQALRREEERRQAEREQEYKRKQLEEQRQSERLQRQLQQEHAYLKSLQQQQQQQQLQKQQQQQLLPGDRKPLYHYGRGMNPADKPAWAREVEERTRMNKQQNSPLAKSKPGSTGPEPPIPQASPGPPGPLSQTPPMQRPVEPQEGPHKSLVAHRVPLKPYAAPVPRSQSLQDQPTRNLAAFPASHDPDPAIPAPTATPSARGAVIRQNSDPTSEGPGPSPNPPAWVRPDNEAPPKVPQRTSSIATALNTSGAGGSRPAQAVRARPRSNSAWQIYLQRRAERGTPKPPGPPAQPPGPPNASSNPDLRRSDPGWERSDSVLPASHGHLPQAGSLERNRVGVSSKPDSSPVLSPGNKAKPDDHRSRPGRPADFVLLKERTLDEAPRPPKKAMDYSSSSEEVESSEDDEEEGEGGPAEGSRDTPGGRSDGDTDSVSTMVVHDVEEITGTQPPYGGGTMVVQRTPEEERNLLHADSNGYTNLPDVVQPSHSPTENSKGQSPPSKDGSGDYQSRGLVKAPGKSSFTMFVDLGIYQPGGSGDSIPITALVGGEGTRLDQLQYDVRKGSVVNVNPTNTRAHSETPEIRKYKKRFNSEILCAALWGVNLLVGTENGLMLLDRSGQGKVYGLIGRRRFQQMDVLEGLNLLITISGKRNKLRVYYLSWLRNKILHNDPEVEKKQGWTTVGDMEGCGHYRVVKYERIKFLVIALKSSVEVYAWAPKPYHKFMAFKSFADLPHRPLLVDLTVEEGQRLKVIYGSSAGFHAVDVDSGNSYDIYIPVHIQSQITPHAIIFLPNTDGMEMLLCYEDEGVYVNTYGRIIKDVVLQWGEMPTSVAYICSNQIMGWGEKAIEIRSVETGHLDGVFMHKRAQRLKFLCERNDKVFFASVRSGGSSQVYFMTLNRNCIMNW
Sequence of Ribosomal protein S6 kinase alpha-2 (Homo sapiens) (Q15349 whole entry): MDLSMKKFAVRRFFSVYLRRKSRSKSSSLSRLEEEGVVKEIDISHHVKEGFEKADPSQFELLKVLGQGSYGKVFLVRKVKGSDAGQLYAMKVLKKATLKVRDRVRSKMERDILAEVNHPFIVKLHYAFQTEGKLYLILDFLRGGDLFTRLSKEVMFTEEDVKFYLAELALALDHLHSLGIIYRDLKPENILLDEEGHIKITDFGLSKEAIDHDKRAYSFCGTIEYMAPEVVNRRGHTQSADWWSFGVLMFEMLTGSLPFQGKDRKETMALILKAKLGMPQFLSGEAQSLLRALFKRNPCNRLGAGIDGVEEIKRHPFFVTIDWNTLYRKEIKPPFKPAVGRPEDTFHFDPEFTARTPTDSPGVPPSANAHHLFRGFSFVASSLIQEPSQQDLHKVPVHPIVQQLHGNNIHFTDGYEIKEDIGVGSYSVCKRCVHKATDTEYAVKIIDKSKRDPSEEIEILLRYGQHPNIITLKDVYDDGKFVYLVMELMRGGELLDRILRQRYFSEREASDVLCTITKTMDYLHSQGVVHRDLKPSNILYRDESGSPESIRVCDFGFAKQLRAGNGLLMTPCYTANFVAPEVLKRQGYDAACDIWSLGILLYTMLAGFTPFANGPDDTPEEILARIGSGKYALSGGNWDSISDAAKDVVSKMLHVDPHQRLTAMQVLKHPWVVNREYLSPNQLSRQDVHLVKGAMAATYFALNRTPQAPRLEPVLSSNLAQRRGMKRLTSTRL
Sequence of Serine/threonine-protein kinase 24 (Homo sapiens) (Q9Y6E0 whole entry, looked up): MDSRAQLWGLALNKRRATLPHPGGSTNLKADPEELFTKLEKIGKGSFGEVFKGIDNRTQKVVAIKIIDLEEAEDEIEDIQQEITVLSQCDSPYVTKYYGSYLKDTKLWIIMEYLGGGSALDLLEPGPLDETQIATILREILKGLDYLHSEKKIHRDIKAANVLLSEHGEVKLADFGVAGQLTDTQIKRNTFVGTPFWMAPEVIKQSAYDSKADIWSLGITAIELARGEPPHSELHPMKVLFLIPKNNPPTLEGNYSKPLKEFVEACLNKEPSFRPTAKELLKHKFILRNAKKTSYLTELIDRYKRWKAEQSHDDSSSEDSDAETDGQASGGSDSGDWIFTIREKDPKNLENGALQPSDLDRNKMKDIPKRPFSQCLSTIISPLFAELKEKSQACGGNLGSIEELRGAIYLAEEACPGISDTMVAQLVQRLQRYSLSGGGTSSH
Sequence of Mast/stem cell growth factor receptor Kit (Homo sapiens), P10721 [D816V] (P10721 whole entry D816V): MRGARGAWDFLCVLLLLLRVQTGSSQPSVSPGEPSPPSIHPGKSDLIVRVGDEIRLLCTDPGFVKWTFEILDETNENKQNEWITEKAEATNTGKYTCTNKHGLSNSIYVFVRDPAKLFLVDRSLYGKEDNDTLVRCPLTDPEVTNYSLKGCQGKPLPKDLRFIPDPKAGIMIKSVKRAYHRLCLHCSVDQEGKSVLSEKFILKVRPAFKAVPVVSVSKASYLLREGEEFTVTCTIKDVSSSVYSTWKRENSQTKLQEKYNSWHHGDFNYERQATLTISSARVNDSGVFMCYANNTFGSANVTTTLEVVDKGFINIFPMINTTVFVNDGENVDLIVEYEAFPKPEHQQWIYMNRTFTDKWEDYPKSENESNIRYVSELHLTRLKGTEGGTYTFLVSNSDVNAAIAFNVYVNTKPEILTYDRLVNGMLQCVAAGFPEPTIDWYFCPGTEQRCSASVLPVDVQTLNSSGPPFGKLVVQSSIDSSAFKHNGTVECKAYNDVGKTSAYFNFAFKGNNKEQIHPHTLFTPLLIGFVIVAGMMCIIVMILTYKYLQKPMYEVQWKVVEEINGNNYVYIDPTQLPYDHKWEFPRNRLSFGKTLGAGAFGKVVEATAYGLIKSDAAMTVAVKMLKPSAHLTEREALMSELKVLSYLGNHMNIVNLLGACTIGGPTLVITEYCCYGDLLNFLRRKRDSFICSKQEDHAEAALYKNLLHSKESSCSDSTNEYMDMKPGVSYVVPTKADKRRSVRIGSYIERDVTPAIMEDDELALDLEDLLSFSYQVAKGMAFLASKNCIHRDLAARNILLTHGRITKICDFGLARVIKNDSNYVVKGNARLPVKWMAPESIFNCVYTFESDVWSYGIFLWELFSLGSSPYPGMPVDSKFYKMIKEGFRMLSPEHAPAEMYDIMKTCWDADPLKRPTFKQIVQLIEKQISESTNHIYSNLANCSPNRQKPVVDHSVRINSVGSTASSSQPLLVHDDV

## COc1cc(Nc2nc(C)cc(-c3cnn4nc(OC)ccc34)n2)cc(C(F)(F)F)c1
[1]
  % of control: 89%
[2]
  % of control: 65%

## O=C(NOC[C@H](O)CO)c1ccc(F)c(F)c1Nc1ccc(I)cc1F
[3]
  % of control: 93%

## Nc1cnc(N2CCc3cc(S(=O)(=O)Nc4c(F)cc(Cl)cc4F)cc(N4CCCC4=O)c32)nc1 [TP-020n]
[4]
  % of inhibition: -15.7%

## CN(C(=O)c1cnn2cccnc12)c1cc2c(cc1N1CCOCC1)C(=O)N(C[C@@H](F)C(C)(C)O)C2
[5]
  dTM: -0.3 K

## Cc1cc(CN)cc(C)c1-c1ncn(C)c1-c1cncn1C
CREB-binding protein
  dTM: -1.89 K

## CCC(=O)N1CCN(c2ccc(-n3c(=O)ccc4cnc5ccc(-c6cnc7ccccc7c6)cc5c43)cc2C(F)(F)F)CC1
Misshapen-like kinase 1
  % of control: 19%
[6]
  % of control: 52%
[7]
  % of control: 79%
[8]
  % of control: 48%

## Cc1cc([C@@H](C)Nc2ccccc2C(=O)O)c2nc(N3CCOCC3)cc(=O)n2c1 [AZD-6482]
[9]
  % of control: 95%
[10]
  % of control: 81%

## N#Cc1cccc(-c2c[nH]c3ncnc(N4CCOCC4)c23)c1
[11]
  % of inhibition: -3%

## CNC(=O)Nc1ccc(-c2nc(N3CC4CCC(C3)O4)c3cnn(C4CCC5(CC4)OCCO5)c3n2)cc1
[12]
  % of inhibition: 11%
